Test results as given in patent publication US11007524B2, “Automatic microfluidic system for rapid personalized drug screening and testing method for personalized antibiotic susceptibility” (National Tsing Hua University, priority 2019, dated 2021).
≈ marks a conversion by molar mass, not a printed value.

Assays:
[1] = system: vancomycin-intermediate Staphylococcus aureus (VISA); assay: Minimum inhibitory concentration by automatic microfluidic system (Example 9), resazurin colour change; format: cell-based
Description: A determination of minimum inhibitory concentration is performed by using the microfluidic chip 100 of FIG. 1 in cooperated with the testing method 200 for personalized antibiotic susceptibility of FIG. 5. The details of the testing method 200 has been described as mentioned above so that the same process will not be further illustrated herein.
In experimental, the microfluidic chip 100 is divided into a reaction zone 1001 and a reaction zone 1002 along line 10-10 by using the fluid storage chamber 111a and the fluid storage chamber 111b as a center. The reaction zone 1001 is utilized for determining the minimum inhibitory concentration of vancomycin for the vancomycin-intermediate Staphylococcus aureus, and the reaction zone 1002 is utilized for determining the minimum inhibitory concentration of gentamicin for the vancomycin-intermediate Staphylococcus aureus. After 4 hours of incubation of the reaction solutions including the resazurin, with different concentrations, the color of the reaction solution will be gradually changed to red when the vancomycin-intermediate Staphylococcus aureus grows and can be observed directly through the microfluidic chip 100.
In such the example, the reference numerals of the reaction chambers 131 of the microfluidic chip 100 are reassigned to the reaction chambers 131a to 131l. […]

[2] = system: vancomycin-intermediate Staphylococcus aureus (VISA); assay: Minimum inhibitory concentration by broth microdilution (Comparative Example 1); format: cell-based; settings: same conditions
Text: Furthermore, the present testing further includes Comparative Example 1.

Compound: CN[C@H](CC(C)C)C(=O)N[C@H]1C(=O)N[C@@H](CC(N)=O)C(=O)N[C@H]2C(=O)N[C@H]3C(=O)N[C@H](C(=O)N[C@H](C(=O)O)c4cc(O)cc(O)c4-c4cc3ccc4O)[C@H](O)c3ccc(c(Cl)c3)Oc3cc2cc(c3O[C@@H]2O[C@H](CO)[C@@H](O)[C@H](O)[C@H]2O[C@H]2C[C@](C)(N)[C@H](O)[C@H](C)O2)Oc2ccc(cc2Cl)[C@H]1O [Vancomycin, vancomycin]
- MIC ([1]; Staphylococcus aureus, VISA, 4 h, read-out: minimum inhibitory concentration, Example 9): 2.16 µg/mL (≈ 1.49 µM)
- MIC ([2]; Staphylococcus aureus): 2 µg/mL (≈ 1.38 µM)

Compound: gentamicin
- minimum inhibitory concentration, Example 9 ([1]; microfluidic chip, VISA 1500 CFU, 3 μL reaction solution, 4 hours of incubation, resazurin): >7.52 µg/mL
- minimum inhibitory concentration, Comparative Example 1 [2]: >8 µg/mL
